Test [1] concerns AKT protein phosphorylated on serine 473 (P-AKT-S473) in PC3 human prostate carcinoma cells. As to the kind of experiment: pAKT expression in PC3 cells measured by MSD Multi-spot Biomarker Detection (Test B). Type of test: cell-based. The conditions noted are these: PC-3, inhibition of AKT Ser473 phosphorylation, 1 to 2 h incubation, MSD sandwich immunoassay, absolute IC50, mean of two experiments. How it is done: (§1) The inhibitory activity of the molecules on AKT phosphorylation is measured either by western blotting using the technique described below, or by the MSD Multi-spot Biomarker detection technique from Meso Scale Discovery also described below.
Where appropriate, the activity of the products is translated into approximately IC50, obtained from a dose-response curve of various concentrations tested and representing the dose giving 50% of specific inhibition (absolute IC50). Two independent experiments make it possible to calculate the mean of the IC50s. Study of pAKT expression in PC3 human prostate carcinoma cells measured by the MSD Multi-spot Biomarker Detection technique from Meso Scale Discovery (Test B): This test is based on measuring the expression of the AKT protein phosphorylated on serine 473 (P-AKT-S473), in the PC3 human prostate carcinoma line, by means of the technique based on a sandwich immunoassay using the MSD Multi-spot Biomarker Detection kit from Meso Scale Discovery: phospho-Akt (Ser473) whole cell lysate kit (#K151 CAD) or phospho-Akt (Ser473)/Total Akt whole cell lysate kit (#K151OOD).
The primary antibody specific for P-AKT-5473 (Kit #K151 CAD) is coated onto an electrode in each well of the 96-well plates of the MSD kit: after the addition of a protein lysate to each well, the signal is visualised by adding a secondary detection antibody labelled with an electrochemoluminescent compound. The procedure followed is that described in the kit.
On day 1, the PC3 cells are seeded into 96-well plates (TPP, #92096) at the concentration of 35 000 cells/well in 200 μl of DMEM medium (DMEM Gibco #11960-044) containing 10% of foetal calf serum (FCS Gibco, #10500-056) and 1% glutamine (L-Glu Gibco #25030-024), and incubated at 37° C., 5% CO2, overnight.
On day 2, the cells are incubated in the presence or absence of the test products for 1 to 2 h at 37° C. in the presence of 5% of CO2. The molecules, diluted in dimethyl sulphoxide (DMSO Sigma #D2650), are added from a 20-times concentrated stock solution, the final percentage of DMSO being 0.1%. The molecules are tested either at a single concentration of less than or equal to 10 μM, or at increasing concentrations in a range that can extend from less than 1 nM to 10 μM.
After this incubation, the cells are lysed for the preparation of the proteins. For this, after the culture medium has been drawn off, […] of complete Tris Lysis Buffer of the MSD kit containing the protease and phosphatase inhibitor solutions are added to the wells and the cells are lysed for 1 h at 4° C. with shaking At this stage, the plates containing the lysates can be frozen at −20° C. or at −80° C.
The wells of the 96-well plates of the MSD kit are saturated for 1 h at ambient temperature with the blocking solution of the MSD kit. Four washes are carried out with 150 μl of Tris Wash Buffer of the MSD kit. The lysates previously prepared are transferred into the 96-well multi-spot plates of the MSD kit and incubated for 1 h at ambient temperature, with shaking Four washes are carried out with 150 μl of Tris Wash Buffer of the MSD kit. 25 μl of the MSD sulpho-tag detection antibody solution are added to the wells and incubated for 1 h at ambient temperature, with shaking Four washes are carried out with 150 μl of Tris Wash Buffer of the MSD kit. 150 μl of Read Buffer of the MSD kit are added to the wells and the plates are read immediately on the 512400 instrument from Meso Scale Discovery.
The instrument measures a signal for each well. Wells without cells and containing the lysis buffer serve to determine the background noise that will be subtracted from all the measurements (min). The wells containing cells in the absence of product and in the presence of 0.1% DMSO are considered to be the 100% signal (max). The percentage inhibition is calculated for each concentration of test product according to the following formula: (1−((test−min)/(max−min)))×100. […]

Test [2] has as its system AKT protein phosphorylated on serine 473 in PC3 human prostate carcinoma cells. As to the kind of experiment: pAKT expression in PC3 cells measured by western blotting (test A). Type of test: cell-based. The note with it: PC-3, inhibition of AKT Ser473 phosphorylation, 1 to 2 hours incubation, absolute IC50, mean of two experiments. How it is done: as §1
Study of pAKT expression in PC3 human prostate carcinoma cells measured by western blotting (test A):
This test is based on measuring the expression of the AKT protein phosphorylated on serine 473. The phosphorylation of AKT (pAKT) is measured by western blotting in the PC3 human prostate carcinoma line (ATCC CRL-1435), using an antibody that specifically recognises pAKT-5473.
On day 1, the PC3 cells are seeded into 6-well plates (TPP, #92006) at the concentration of 0.8×10^6 cells/well in 1800 μl of DMEM medium (DMEM Gibco #11960-044) containing 10% of foetal calf serum (SVF Gibco, #10500-056) and 1% glutamine (L-Glu Gibco #25030-024), and incubated at 37° C., 5% CO2, overnight.
On day 2, the cells are incubated in the presence or absence of the test products for 1 to 2 hours at 37° C. in the presence of 5% CO2. The molecules, diluted in dimethyl sulphoxide (DMSO Sigma #D2650), are added from a 10-times concentrated stock solution, the final percentage of DMSO being 0.1%. The molecules are tested either at a single concentration of less than or equal to 10 μM, or at increasing concentrations in a range that can extend from less than 1 nM to 10 μM.
After this incubation, the cells are lysed for the preparation of the proteins. After the culture medium has been drawn off, the cells are rinsed with 1 ml of PBS (DPBS Gibco, #14190-094), recovered by scraping in 200 μl of complete HNTG buffer and transferred into a 96-well plate (Greiner #651201), and lysed for 1 h on ice. The HNTG buffer is composed of the following mixture: 50 mM hepes, 150 mM NaCl, 1% triton, 10% glycerol, with extemporaneous addition of one Mini Protease Inhibitor Cocktail tablet (Roche 1836153) and of one Phosphatase Inhibitor Cocktail tablet (Roche 104906837001) per 10 ml of buffer.
The lysate is centrifuged for 10 min at 6000 rpm. 155 μl of supernatant are recovered. 150 μl are incubated for denaturation for 5 min at 95° C. in the presence of 4× NuPAGE LDS Sample Buffer diluted 4-fold (InVitrogen ref NP0007) and of 10× NuPAGE Sample Reducing Agent diluted 10-fold (InVitrogen ref NP0009). These samples are then frozen at −20° C. 5 μl are assayed by the microBCA technique according to the technical bulletin of the MicroBCA Protein Assay Kit (Pierce #23235).
For protein separation, 20 μg of proteins are loaded on to a NU-PAGE 4-12% Bis Tris Gel 12 well (InVitrogen ref NP0322BOX) and the migration is carried out for 1 h 30 in 20×NU-PAGE MOPS SDS Running Buffer diluted 20-fold (InVitrogen ref NP0001), at 150 volts.
The gel is then transferred onto an Invitrolon PVDF membrane (Invitrogen #LC2007) permeabilised beforehand for a few seconds in ethanol (Ethanol Fischer Scientific #E/0600DF/15).
The transfer is carried out in a Biorad tank at 30 volts overnight or at 60 volts for 3 hours, in the presence of 20× NUPAGE Transfer Buffer diluted 20-fold (InVitrogen ref NP0006).
The membrane is then saturated in saturating solution composed of TBS (10× Tris Buffered Saline, Sigma #T5912, diluted 10-fold), 0.1% Tween 20 (Sigma #P5927) and 3% BSA (Bovine Serum Albumin Fraction V, Sigma #A4503) for 6 h after overnight transfer or else for 1 h after transfer for a period of 3 h.
The primary antibodies are diluted to 1/1000th for the anti-phospho AKT-Ser473 antibody (193H2, rabbit monoclonal, cat#4058 from Cell Signaling Technology) Abcam), in saturating solution composed of […], 0.1% Tween 20 and 3% BSA, and then shaken overnight at 4° C.
Two rinses for 5 min in washing solution composed of TBS and 0.1% Tween 20 are carried out before hybridisation of the secondary antibodies. […]
For orientation: Immunoblotting shows a protein as a band on a membrane.

Drawing on US8507483B2, “1H-pyrimidin-2-one derivatives, preparation thereof and pharmaceutical use thereof as inhibitors of AKT (PKB) phosphorylation” (Sanofi, priority 2009, dated 2013), this text covers IC50 for 11 compounds.

By IC50 is commonly meant the midpoint of a concentration-inhibition curve. Low values mean greater potency, high ones weaker potency.

For the compound `O=c1cc(N2CCOCC2)nc(Cc2nc3ccc(F)cc3[nH]2)[nH]1` [Example 1, 2-[(5-fluoro-1H-benzimidazol-2-yl)methyl]-6-(morpholin-4-yl)pyrimidin-4(3H)-one], the IC50 in test [1] turned out to be 41 nM; in test [2], 298 nM.

`O=c1cc(N2CCOCC2)nc(Cc2nc3ccccc3o2)[nH]1` [Example 2, 2-(1,3-benzoxazol-2-ylmethyl)-6-(morpholin-4-yl)pyrimidin-4(3H)-one]: half-maximal inhibition in test [2] (IC50) was put at 388 nM.

Regarding `O=c1cc(N2CCOCC2)nc(Cc2nc3ccc(Br)cc3[nH]2)[nH]1` [Example 3, 2-[(5-bromo-1H-benzimidazol-2-yl)methyl]-6-(morpholin-4-yl)pyrimidin-4(3H)-one], the results for the IC50 in test [1] and in test [2] were 85 nM and 1340 nM, respectively.

`O=c1cc(N2CCOCC2)nc(Cc2nc3cc(F)c(F)cc3[nH]2)[nH]1` [Example 5, 2-[(5,6-difluoro-1H-benzimidazol-2-yl)methyl]-6-(morpholin-4-yl)pyrimidin-4(3H)-one] gave a half-inhibitory concentration (IC50) in test [2] of 1010 nM.

`O=c1cc(N2CCOCC2)nc(Cc2nc3ccc(F)cc3o2)[nH]1` [Example 6, 2-[(6-fluoro-1,3-benzoxazol-2-yl)methyl]-6-(morpholin-4-yl)pyrimidin-4(3H)-one]: the IC50 was found to be 49 nM in test [1] and 380 nM in test [2].

With `O=c1cc(N2CCOCC2)nc(Cc2nc3cc(F)ccc3o2)[nH]1` [Example 7, 2-[(5-fluoro-1,3-benzoxazol-2-yl)methyl]-6-(morpholin-4-yl)pyrimidin-4(3H)-one], the half-maximal inhibitory concentration (IC50) in test [1] is 26 nM; in test [2] it was 903 nM.

Take `Cn1c(Cc2nc(N3CCOCC3)cc(=O)[nH]2)nc2ccccc21` [Example 10, 2-[(1-methyl-1H-benzimidazol-2-yl)methyl]-6-(morpholin-4-yl)pyrimidin-4(3H)-one]: the IC50 in test [1] stood at 27 nM; in test [2], 713 nM.

Compound `Cn1c(Cc2nc(N3CCOCC3)cc(=O)[nH]2)nc2cc(Cl)c(Cl)cc21` [Example 38, 2-[(5,6-Dichloro-1-methyl-1H-benzimidazol-2-yl)methyl]-6-(morpholin-4-yl)pyrimidin-4(3H)-one] returned an IC50 in test [1] of 65 nM.

As to `Cn1c(Cc2nc(N3CCOCC3)cc(=O)[nH]2)nc2cc(F)c(F)c(F)c21` [Example 39, 6-(Morpholin-4-yl)-2-[(5,6,7-trifluoro-1-methyl-1H-benzimidazol-2-yl)methyl]pyrimidin-4(3H)-one], 100 nM corresponded to half-maximal inhibition in test [1] (IC50).

`O=c1cc(N2CCOCC2)nc(Cc2nc3c(O)cccc3o2)[nH]1` [Example 40, 2-[(4-hydroxy-1,3-benzoxazol-2-yl)methyl]-6-(morpholin-4-yl)pyrimidin-4(3H)-one] yielded an IC50 in test [1] of 44 nM.

For `Cn1c(Cc2nc(N3CCOCC3)cc(=O)[nH]2)nc2cccc(Br)c21` [Example 41, 2-[(7-Bromo-1-methyl-1H-benzimidazol-2-yl)methyl]-6-(morpholin-4-yl)pyrimidin-4(3H)-one], half-maximal inhibition in test [1] (IC50) was put at 32 nM.
